Reference: the CheMixHub viscosity set

Assay: xn = mol fraction of the nth substance listed

CC(=O)[O-].[Na+] + O
viscosity [mPa·s], 101.33 kPa
Conditions | 293.15 K | 298.15 K | 303.15 K
x1 = 0.0046 | 1.082 | 0.965 | 0.863
x1 = 0.0112 | 1.217 | 1.083 | 0.968
x1 = 0.0172 | 1.355 | 1.205 | 1.075
x1 = 0.0215 | 1.466 | 1.302 | 1.16
x1 = 0.0287 | 1.673 | 1.484 | 1.32
x1 = 0.0343 | 1.857 | 1.645 | 1.462
x1 = 0.0402 | 2.076 | 1.836 | 1.629
x1 = 0.0467 | 2.35 | 2.076 | 1.839
x1 = 0.0505 | 2.529 | 2.232 | 1.975
x1 = 0.0572 | 2.883 | 2.54 | 2.244
x1 = 0.0652 | 3.379 | 2.97 | 2.619

CCCCCCCCCCC + CCCCCCCCCO
viscosity [mPa·s], 100 kPa
Conditions | x1 = 0.1008 | x1 = 0.2004 | x1 = 0.2999 | x1 = 0.3992 | x1 = 0.5014 | x1 = 0.5978 | x1 = 0.6993 | x1 = 0.7958 | x1 = 0.9
293.15 K | 8.362 | 6.114 | 4.688 | 3.479 | 2.709 | 2.208 | 1.803 | 1.531 | 1.326
298.15 K | 6.989 | 5.181 | 4.013 | 3.028 | 2.391 | 1.972 | 1.634 | 1.419 | 1.216
303.15 K | 5.885 | 4.422 | 3.464 | 2.653 | 2.124 | 1.777 | 1.529 | 1.296 | 1.117
308.15 K | 4.99 | 3.802 | 3.012 | 2.342 | 1.904 | 1.613 | 1.391 | 1.185 | 1.03
313.15 K | 4.264 | 3.291 | 2.636 | 2.084 | 1.718 | 1.5 | 1.271 | 1.09 | 0.956
318.15 K | 3.665 | 2.868 | 2.326 | 1.867 | 1.561 | 1.367 | 1.164 | 1.004 | 0.889
323.15 K | 3.17 | 2.503 | 2.066 | 1.685 | 1.461 | 1.249 | 1.07 | 0.928 | 0.826

OCCCl + CCCCCO
viscosity [mPa·s], 101.33 kPa
Conditions | x1 = 0.0959 | x1 = 0.194 | x1 = 0.2912 | x1 = 0.3946 | x1 = 0.4922 | x1 = 0.5939 | x1 = 0.6962 | x1 = 0.8018 | x1 = 0.8986
298.15 K | 3.401 | 3.282 | 3.2 | 3.138 | 3.088 | 3.045 | 3.02 | 2.98 | 2.92
303.15 K | 2.941 | 2.86 | 2.78 | 2.731 | 2.705 | 2.69 | 2.661 | 2.62 | 2.56
308.15 K | 2.58 | 2.5 | 2.441 | 2.401 | 2.384 | 2.378 | 2.34 | 2.323 | 2.25

CCCC(O)CC (configuration not stated) + CCO
298.15 K, 101.33 kPa
Conditions | viscosity [mPa·s]
x2 = 0.1028 | 4.236
x2 = 0.2116 | 3.975
x2 = 0.3124 | 3.658
x2 = 0.4135 | 3.218
x2 = 0.5018 | 2.88
x2 = 0.6027 | 2.459
x2 = 0.6987 | 2.054
x2 = 0.7994 | 1.673
x2 = 0.9044 | 1.363

CCCCCCCCCCC + CCCCCCCCCCCC
298.15 K, 101.33 kPa
Conditions | viscosity [mPa·s]
x1 = 0.106 | 1.314
x1 = 0.2057 | 1.297
x1 = 0.3093 | 1.253
x1 = 0.4136 | 1.236
x1 = 0.5553 | 1.196
x1 = 0.6095 | 1.175
x1 = 0.7174 | 1.143
x1 = 0.8145 | 1.126
x1 = 0.9084 | 1.11

NC=O + COCCO
101 kPa
Conditions | viscosity [mPa·s]
303 K, x1 = 0.1585 | 1.679
303 K, x1 = 0.4194 | 2.286
303 K, x1 = 0.5295 | 2.443
303 K, x1 = 0.6283 | 2.625
303 K, x1 = 0.717 | 2.859
303 K, x1 = 0.8711 | 2.837
303 K, x1 = 0.9381 | 2.945
303.15 K, x1 = 0.1785 | 1.795
313 K, x1 = 0.2971 | 1.632
313 K, x1 = 0.4194 | 1.841
313 K, x1 = 0.5295 | 1.958
313 K, x1 = 0.6283 | 2.067
313 K, x1 = 0.717 | 2.223
313 K, x1 = 0.7978 | 2.339
313 K, x1 = 0.8711 | 2.226
318.15 K, x1 = 0.5726 | 1.885
